Where a SMILES comes first, the peptide text is derived from it. [ ]: non-standard residue; d: D form. hLeu = CC(C)CC[C@H](N)C(=O)O
Tests used:
[1] = Inhibition of interleukin-23 binding to rat interleukin-23 receptor incubated for 2 hrs by competitive binding ELISA
[2] = biological target: T1, Interleukin-23 receptor (Homo sapiens, UniProt Q5VWK5); assay: Inhibition of interleukin-23 binding to human interleukin-23 receptor incubated for 2 hrs by competitive binding ELISA
T1 sequence (Q5VWK5 whole entry): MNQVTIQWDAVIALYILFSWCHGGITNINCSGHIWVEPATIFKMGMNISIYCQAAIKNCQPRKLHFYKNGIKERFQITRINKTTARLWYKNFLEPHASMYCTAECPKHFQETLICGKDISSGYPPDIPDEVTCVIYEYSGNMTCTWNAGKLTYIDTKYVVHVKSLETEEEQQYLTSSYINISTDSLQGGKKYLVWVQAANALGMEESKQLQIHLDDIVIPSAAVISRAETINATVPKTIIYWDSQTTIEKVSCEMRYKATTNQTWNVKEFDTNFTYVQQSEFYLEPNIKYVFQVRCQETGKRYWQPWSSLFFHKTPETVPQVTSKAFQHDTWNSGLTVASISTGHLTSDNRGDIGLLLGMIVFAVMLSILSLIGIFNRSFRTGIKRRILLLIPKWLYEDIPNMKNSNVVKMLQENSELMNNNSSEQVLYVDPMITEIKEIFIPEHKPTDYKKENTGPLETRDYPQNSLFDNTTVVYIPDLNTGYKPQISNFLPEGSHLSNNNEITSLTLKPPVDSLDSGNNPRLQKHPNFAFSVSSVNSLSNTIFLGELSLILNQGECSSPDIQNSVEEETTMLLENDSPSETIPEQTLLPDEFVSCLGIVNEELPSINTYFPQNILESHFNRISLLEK

[3] = biological target: T1, Interleukin-23 receptor; assay: Inhibition of interleukin-23 receptor in human DB cells assessed as reduction in IL-23-stimulated STAT3 phosphorylation incubated for 30 mins by HTRF assay; type: cell-based
[4] = Half life in simulated intestinal fluid at 20 uM by LC-MS/MS analysis; type: ADME

SMILES | IC50 [1] | other results
CC(=O)N[C@@H](CS)C(=O)N[C@@H](CCC(N)=O)C(=O)N[C@H](C(=O)N[C@@H](Cc1c[nH]c2ccccc12)C(=O)N[C@@H](CCC(N)=O)C(=O)N[C@@H](CS)C(=O)N[C@@H](Cc1ccc(O)cc1)C(=O)N[C@@H](Cc1c[nH]c2ccccc12)C(=O)N[C@@H](Cc1cccnc1)C(=O)N[C@@H](CCC(=O)O)C(=O)N[C@@H](CC(N)=O)C(=O)NCC(N)=O)[C@@H](C)O | 20 nM | 
CC(=O)NCCCC[C@H](NC(=O)[C@H](CCCN)NC(=O)[C@H](Cc1ccc2ccccc2c1)NC(=O)[C@H](Cc1ccc(OCCN)cc1)NC(=O)[C@@H]1CSCC[C@H](NC(C)=O)C(=O)N[C@@H](CCC(N)=O)C(=O)N[C@@H]([C@@H](C)O)C(=O)N[C@@H](Cc2c[nH]c3ccccc23)C(=O)N[C@@H](CCC(N)=O)C(=O)N1)C(=O)N[C@@H](CC(N)=O)C(=O)NCC(N)=O |  | IC50 [2]: 10 to 25 nM; IC50 [3]: 10 to 25 nM; half-life at 20 µM [4]: < 1 h
CC(=O)N[C@@H](CS)C(=O)N[C@@H](CC(N)=O)C(=O)N[C@H](C(=O)N[C@@H](Cc1c[nH]c2ccccc12)C(=O)N[C@@H](CCC(N)=O)C(=O)N[C@@H](CS)C(=O)N[C@@H](Cc1ccc(O)cc1)C(=O)N[C@@H](Cc1c[nH]c2ccccc12)C(=O)N[C@@H](CCCNC(=N)N)C(=O)N[C@H](C(=O)N[C@@H](Cc1ccccc1)C(=O)NCC(=O)NCCOCC(=O)N[C@H](CCCCN)C(N)=O)C(C)C)[C@@H](C)O | 79 nM | 
CC(=O)N[C@@H](CS)C(=O)N[C@@H](CCC(N)=O)C(=O)N[C@H](C(=O)N[C@@H](Cc1c[nH]c2ccccc12)C(=O)N[C@@H](CCC(N)=O)C(=O)N[C@@H](CS)C(=O)N[C@@H](Cc1ccc(O)cc1)C(=O)N[C@@H](Cc1cccc2ccccc12)C(=O)N[C@@](C)(CC(C)C)C(=O)N[C@@H](CCC(=O)O)C(=O)N[C@@H](CC(N)=O)C(=O)NCC(N)=O)[C@@H](C)O | 67 nM | 
CC(=O)N[C@@H](CS)C(=O)N[C@@H](CCN)C(=O)N[C@H](C(=O)N[C@@H](Cc1c[nH]c2ccccc12)C(=O)N[C@@H](CCC(N)=O)C(=O)N[C@@H](CS)C(=O)N[C@@H](Cc1ccc(O)cc1)C(=O)N[C@@H](Cc1c[nH]c2ccccc12)C(=O)N[C@@H](CCCNC(=N)N)C(=O)N[C@H](C(=O)N[C@@H](Cc1ccccc1)C(=O)NCC(=O)NCCOCC(=O)N[C@H](CCCCN)C(N)=O)C(C)C)[C@@H](C)O | 51 nM | 
CC(=O)N[C@@H](Cc1ccccc1)C(=O)N[C@@H](CS)C(=O)N[C@@H](CCC(N)=O)C(=O)N[C@H](C(=O)N[C@@H](Cc1c[nH]c2ccccc12)C(=O)N[C@@H](CCC(N)=O)C(=O)N[C@@H](CS)C(=O)N[C@@H](Cc1ccc(O)cc1)C(=O)N[C@@H](Cc1c[nH]c2ccccc12)C(=O)N[C@@H](CCC(C)C)C(=O)N[C@@H](CCC(=O)O)C(=O)N[C@@H](CC(N)=O)C(=O)NCC(N)=O)[C@@H](C)O | 25 nM | 
CC(=O)NCCCC[C@H](NC(=O)[C@](C)(CCCCN)NC(=O)[C@H](Cc1ccc2ccccc2c1)NC(=O)[C@H](Cc1ccc(Cl)c(Cl)c1)NC(=O)[C@@H]1CSCC[C@H](NC(C)=O)C(=O)N[C@@H](CCC(N)=O)C(=O)N[C@@H]([C@@H](C)O)C(=O)N[C@@H](Cc2c[nH]c3ccccc23)C(=O)N[C@@H](CCC(N)=O)C(=O)N1)C(=O)N[C@@H](CC(N)=O)C(=O)NCC(N)=O |  | IC50 [2]: 100 to 1000 nM; IC50 [3]: 25 to 100 nM; half-life at 20 µM [4]: 2 to 3 h
CC(=O)N[C@@H](CS)C(=O)N[C@@H](CCC(N)=O)C(=O)N[C@H](C(=O)N[C@@H](Cc1c[nH]c2ccccc12)C(=O)N[C@@H](CCC(N)=O)C(=O)N[C@@H](CS)C(=O)N[C@@H](Cc1ccc2ccccc2c1)C(=O)N[C@@H](Cc1c[nH]c2ccccc12)C(=O)N[C@@H](CCC(C)C)C(=O)N[C@@H](CCC(=O)O)C(=O)N[C@@H](CC(N)=O)C(=O)NCC(N)=O)[C@@H](C)O | 73 nM | 
CC(=O)N[C@@H](CS)C(=O)N[C@@H](CCC(N)=O)C(=O)N[C@H](C(=O)N[C@@H](Cc1c[nH]c2ccccc12)C(=O)N[C@@H](CCC(N)=O)C(=O)N[C@@H](CS)C(=O)N[C@@H](Cc1ccc(O)cc1)C(=O)N[C@@H](Cc1c[nH]c2ccccc12)C(=O)N[C@@H](CCCNC(=N)N)C(=O)N[C@H](C(=O)N[C@@H](Cc1ccccc1)C(=O)NCC(=O)NCCOCC(=O)N[C@H](CCCCN)C(N)=O)C(C)C)[C@@H](C)O | 62 nM | 
CC(=O)N[C@@H](CS)C(=O)N[C@@H](CO)C(=O)N[C@H](C(=O)N[C@@H](Cc1c[nH]c2ccccc12)C(=O)N[C@@H](CCC(=O)O)C(=O)N[C@@H](CS)C(=O)N[C@@H](Cc1ccc(O)cc1)C(=O)N[C@@H](Cc1c[nH]c2ccccc12)C(=O)N[C@@H](Cc1cnc[nH]1)C(=O)N[C@H](C(=O)N[C@@H](Cc1ccc(O)cc1)C(=O)NCC(N)=O)[C@@H](C)O)[C@@H](C)O | 286 nM | 
CC(=O)N[C@@H](CS)C(=O)N[C@@H](CCCNC(=N)N)C(=O)N[C@H](C(=O)N[C@@H](Cc1c[nH]c2ccccc12)C(=O)N[C@@H](CCC(N)=O)C(=O)N[C@@H](CS)C(=O)N[C@@H](Cc1ccc(O)cc1)C(=O)N[C@@H](Cc1c[nH]c2ccccc12)C(=O)N[C@@H](CC(C)C)C(=O)N[C@@H](CCCNC(=N)N)C(=O)N[C@@H](CC(C)C)C(=O)NCC(=O)N[C@@H](CC(=O)O)C(=O)N[C@@H](CCC(=O)O)C(=O)NCC(N)=O)[C@@H](C)O (Ac-CRTWQCYWLRLGDEG-NH2) | 483 nM | 
CC(=O)N[C@@H](CS)C(=O)N[C@@H](CCC(N)=O)C(=O)N[C@H](C(=O)N[C@@H](Cc1c[nH]c2ccccc12)C(=O)N[C@@H](CCC(N)=O)C(=O)N[C@@H](CS)C(=O)N[C@@H](Cc1ccc(O)cc1)C(=O)N[C@@H](Cc1c[nH]c2ccccc12)C(=O)NC(C)(C)C(=O)N[C@@H](CCC(=O)O)C(=O)N[C@@H](CC(N)=O)C(=O)NCC(N)=O)[C@@H](C)O | 34 nM | 
CC(=O)N[C@H]1CCSC[C@@H](C(=O)N[C@@H](Cc2ccc(O)cc2)C(=O)N[C@@H](Cc2c[nH]c3ccccc23)C(=O)N[C@@H](CCC(C)C)C(=O)N[C@@H](CCC(=O)O)C(=O)N[C@@H](CC(N)=O)C(=O)NCC(N)=O)NC(=O)[C@H](CCC(N)=O)NC(=O)[C@H](Cc2c[nH]c3ccccc23)NC(=O)[C@H]([C@@H](C)O)NC(=O)[C@H](CCC(N)=O)NC1=O |  | IC50 [2]: 25 to 100 nM; IC50 [3]: 10 to 25 nM; half-life at 20 µM [4]: < 1 h
CC(=O)N[C@@H](CS)C(=O)N[C@@H](CCCNC(=N)N)C(=O)N[C@H](C(=O)N[C@@H](Cc1c[nH]c2ccccc12)C(=O)N[C@@H](CCC(N)=O)C(=O)N[C@@H](CS)C(=O)N[C@@H](Cc1ccc(O)cc1)C(=O)N[C@@H](Cc1c[nH]c2ccccc12)C(=O)N[C@@H](CO)C(=O)N[C@@H](CCC(=O)O)C(=O)N[C@@H](Cc1ccccc1)C(=O)NCC(=O)N[C@H](C(=O)NCC(=O)N[C@@H](CCC(=O)O)C(N)=O)[C@@H](C)O)[C@@H](C)O (Ac-CRTWQCYWSEFGTGE-NH2) | 778 nM | 

Continued, in another order:

IC50 [1] | SMILES | other results
125 nM | CC(=O)N[C@@H](CS)C(=O)N[C@@H](CCC(N)=O)C(=O)N[C@H](C(=O)N[C@@H](Cc1c[nH]c2ccccc12)C(=O)N[C@@H](CCC(N)=O)C(=O)N[C@@H](CS)C(=O)N[C@@H](Cc1cccc2ccccc12)C(=O)N[C@@H](Cc1ccc2ccccc2c1)C(=O)N[C@@H](CCC(C)C)C(=O)N[C@@H](CCC(=O)O)C(=O)N[C@@H](CC(N)=O)C(=O)NCC(N)=O)[C@@H](C)O | 
192 nM | CC(=O)N[C@@H](CS)C(=O)N(C)[C@@H](CCCNC(=N)N)C(=O)N[C@H](C(=O)N[C@@H](Cc1c[nH]c2ccccc12)C(=O)N[C@@H](CCC(N)=O)C(=O)N[C@@H](CS)C(=O)N[C@@H](Cc1ccc(O)cc1)C(=O)N[C@@H](Cc1c[nH]c2ccccc12)C(=O)N[C@@H](CCCNC(=N)N)C(=O)N[C@H](C(=O)N[C@@H](Cc1ccccc1)C(=O)NCC(=O)NCCC(=O)N[C@H](CCCCN)C(N)=O)C(C)C)[C@@H](C)O | 
28 nM | CC(=O)N[C@@H](CS)C(=O)N[C@H](C(=O)N[C@H](C(=O)N[C@@H](Cc1c[nH]c2ccccc12)C(=O)N[C@@H](CCC(N)=O)C(=O)N[C@@H](CS)C(=O)N[C@@H](Cc1ccc(O)cc1)C(=O)N[C@@H](Cc1c[nH]c2ccccc12)C(=O)N[C@@H](CCC(C)C)C(=O)N[C@@H](CCC(=O)O)C(=O)N[C@@H](CC(N)=O)C(=O)NCC(N)=O)[C@@H](C)O)[C@@H](C)O (Ac-CTTWQCYW[hLeu]ENG-NH2) | 
276 nM | C[C@@H](O)[C@H](NC(=O)[C@H](CCC(N)=O)NC(=O)[C@@H](N)CS)C(=O)N[C@@H](Cc1c[nH]c2ccccc12)C(=O)N[C@@H](CCC(N)=O)C(=O)N[C@@H](CS)C(=O)N[C@@H](Cc1ccc(O)cc1)C(=O)N[C@@H](Cc1c[nH]c2ccccc12)C(=O)N[C@@H](CCCN)C(=O)N[C@@H](CN)C(=O)N[C@@H](Cc1ccccc1)C(=O)NCC(=O)NCCOCC(=O)N[C@H](CCCCN)C(N)=O | 
182 nM | CC(=O)N[C@@H](CS)C(=O)N[C@@H](CCC(N)=O)C(=O)N[C@H](C(=O)N[C@@H](Cc1c[nH]c2ccccc12)C(=O)N[C@@H](CCC(N)=O)C(=O)N[C@@H](CS)C(=O)N[C@@H](Cc1ccc(O)cc1)C(=O)N[C@@H](Cc1c[nH]c2ccccc12)C(=O)N[C@@H](CCC(C)C)C(=O)N[C@@H](CCC(=O)O)C(=O)N[C@@H](CC(N)=O)C(=O)N[C@@H](Cc1ccccc1)C(N)=O)[C@@H](C)O | 

From ChEMBL document CHEMBL4417631, “Oral peptide inhibitors of interleukin-23 receptor and their use to treat inflammatory bowel diseases” (2017)
